In patent publication US20060276464A1, “Diarylsulfone sulfonamides and use thereof” (Wyeth, priority 2005, published 2006):
Where “and” joins values, the source holds several entries; their conditions need not be identical. Identical values can stand only once. Like-named read-outs stand apart in the source and are kept apart here.

What was measured:
[1] = molecular target: T1, SFRP-1 (Homo sapiens, UniProt Q8N474); test: Cell-based assay for in vitro measurement of SFRP-1/SARP2 antagonist activity (U2OS cells co-transfected with 16x TCF-tk-Luciferase reporter, Wnt and hSFRP-1); settings: for fold induction at 15 µM / fold induction at 10 µM: U2OS; for fold induction at 10 µM: read-out: Fold Induction with SFRP-1, U2OS cells, single dose 10 μM, luciferase reporter, fold induction over SFRP-1 control;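 for all read-outs here: U2OS cells co-transfected with a TCF-tk luciferase reporter, a Wnt vector, hSFRP-1 or empty vector and CMV-βgal, luciferase luminescence read in cell lysates alongside βgal activity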
T1 sequence (Q8N474 32-314): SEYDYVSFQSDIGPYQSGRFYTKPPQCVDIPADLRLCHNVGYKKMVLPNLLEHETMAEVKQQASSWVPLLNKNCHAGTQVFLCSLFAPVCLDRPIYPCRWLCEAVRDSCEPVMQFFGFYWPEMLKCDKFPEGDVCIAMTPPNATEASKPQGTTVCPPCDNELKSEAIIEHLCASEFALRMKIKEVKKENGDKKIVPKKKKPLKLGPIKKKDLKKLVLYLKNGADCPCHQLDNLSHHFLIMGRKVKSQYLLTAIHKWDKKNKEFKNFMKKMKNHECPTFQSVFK

[2] = molecular target: T1, SFRP-1; test: Fluorescence polarization binding assay (competitive displacement of a probe compound from SFRP-1); settings: fluorescence anisotropy, 45 nM SFRP-1, 20 nM probe;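 note: test compound competes with a fluorescent probe held by SFRP-1, seen as a drop in probe anisotropy after incubation in darkness, with anisotropy as function of rising compound dose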
[3] = read-out: Fold Induction with SFRP-1, Conc 15 μM, single dose, luciferase reporter, fold induction over SFRP-1 control, cells with SFRP-1
[4] = read-out: Fold Induction without SFRP-1, Conc 15 μM, single dose, luciferase reporter, cells without SFRP-1 (specificity control)
[5] = read-out: Fold Induction with SFRP-1, Conc 15 μM, with SFRP-1, fold induction over SFRP-1 control, single dose
[6] = read-out: Fold Induction without SFRP-1, Conc 15 μM, without SFRP-1, single dose

## C[C@H](C(N)=O)N1CCC(NS(=O)(=O)c2cc(S(=O)(=O)c3ccccc3)ccc2C(F)(F)F)CC1 [Example 1038, (2R)-2-[4-({[5-(phenylsulfonyl)-2-(trifluoromethyl)phenyl]sulfonyl}amino)piperidin-1-yl]propanamide]
[1]
  EC50: 331 nM
[2]
  IC50: 100 nM

## Cc1c(Br)cccc1S(=O)(=O)c1ccc(C(C)C)c(S(=O)(=O)NCCc2ccccn2)c1 [Example 577, 5-[(3-bromo-2-methylphenyl)sulfonyl]-2-isopropyl-N-(2-pyridin-2-ylethyl)benzenesulfonamide]
[1]; [3]
  fold induction at 15 µM: 1.9
[1]; [4]
  fold induction at 15 µM: 1.2
[2]
  IC50: 700 nM

## CC(C)c1ccc(S(=O)(=O)c2ccccc2)cc1S(=O)(=O)NC1CCCC(C(=O)O)C1 (stereo not drawn) [Example 952, 3-({[2-isopropyl-5-(phenylsulfonyl)phenyl]sulfonyl}amino)cyclohexanecarboxylic acid]
[1]
  fold induction at 10 µM: 1.4
[2]
  IC50: 5000 nM

## CNCCCNS(=O)(=O)c1cc(S(=O)(=O)c2ccccc2)ccc1C(F)(F)F [Example 929, N-[3-(methylamino)propyl]-5-(phenylsulfonyl)-2-(trifluoromethyl)benzenesulfonamide]
[1]
  EC50: 3320 nM
  fold induction at 10 µM: 2.9
[2]
  IC50: 4000 nM

## Cc1ccc(S(=O)(=O)c2ccc(NCCC#N)cc2)cc1S(=O)(=O)NCCCn1ccnc1 [Example 353, 5-({4-[(2-cyanoethyl)amino]phenyl}sulfonyl)-N-[3-(1H-imidazol-1-yl)propyl]-2-methylbenzenesulfonamide]
[1]; [5]
  fold induction at 15 µM: 3.3
[1]; [6]
  fold induction at 15 µM: 1.1
[2]
  IC50: 300 nM

## CN(CCNS(=O)(=O)c1cc(S(=O)(=O)c2ccccc2)ccc1C(F)(F)F)C(=O)NCC(=O)O [Example 888, N-({methyl[2-({[5-(phenylsulfonyl)-2-(trifluoromethyl)phenyl]sulfonyl}amino)ethyl]amino}carbonyl)glycine]
[1]
  EC50: 1770 nM
  fold induction at 10 µM: 2.1
[2]
  IC50: 900 nM

## Cc1ccc(S(=O)(=O)c2ccccc2)cc1S(=O)(=O)NC1CCN(C(=O)N(C)C)CC1 [Example 503, N,N-dimethyl-4-({[2-methyl-5-(phenylsulfonyl)phenyl]sulfonyl}amino)piperidine-1-carboxamide]
[1]; [3]
  fold induction at 15 µM: 2.7
[1]; [4]
  fold induction at 15 µM: 0.9
[2]
  IC50: 2400 nM

## CNc1ccc(S(=O)(=O)c2ccc(C(C)C)c(S(=O)(=O)NC3CCN(C(=O)OC(C)(C)C)CC3)c2)cc1 [Example 528, tert-butyl 4-{[(2-isopropyl-5-{[4-(methylamino)phenyl]sulfonyl}phenyl)sulfonyl]amino}piperidine-1-carboxylate]
[1]; [3]
  fold induction at 15 µM: 2.5
[1]; [4]
  fold induction at 15 µM: 1.1
[2]
  IC50: 300 nM

## CCNc1ccc(S(=O)(=O)c2ccc(C)c(S(=O)(=O)NCCCn3ccnc3)c2)cc1 [Example 311, 5-{[4-(ethylamino)phenyl]sulfonyl}-N-[3-(1H-imidazol-1-yl)propyl]-2-methylbenzenesulfonamide]
[1]; [5]
  fold induction at 15 µM: 2.4
[1]; [6]
  fold induction at 15 µM: 1
[2]
  IC50: 400 nM

## CC(C)(C)c1ccc(C(=O)N2CCC(NS(=O)(=O)c3cc(S(=O)(=O)c4ccccc4)ccc3C(F)(F)F)C2)cc1 (stereo not drawn) [Example 761, N-[1-(4-tert-butylbenzoyl)pyrrolidin-3-yl]-5-(phenylsulfonyl)-2-(trifluoromethyl)benzenesulfonamide]
[1]
  EC50: 1570 nM
  fold induction at 10 µM: 3.2
[2]
  IC50: 600 nM

## CC(C)c1ccc([S@+]([O-])c2ccccc2)cc1S(=O)(=O)NCCc1ccccn1 [Example 590, 2-isopropyl-5-[(R)-phenylsulfinyl]-N-(2-pyridin-2-ylethyl)benzenesulfonamide]
[1]; [3]
  fold induction at 15 µM: 2.9
[1]; [4]
  fold induction at 15 µM: 1
[2]
  IC50: 2000 nM and 2500 nM

## Cc1ccc(S(=O)(=O)c2ccccc2)cc1S(=O)(=O)NC1CCN(C(=O)C2CCCCC2)CC1 [Example 471, N-[1-(cyclohexylcarbonyl)piperidin-4-yl]-2-methyl-5-(phenylsulfonyl)benzenesulfonamide]
[1]; [5]
  fold induction at 15 µM: 2.1
[1]; [6]
  fold induction at 15 µM: 1.1
[2]
  IC50: 2200 nM

## Cc1cc(C)c(S(=O)(=O)c2ccccc2)cc1S(=O)(=O)NC1CCNCC1 [Example 923, 2,4-dimethyl-5-(phenylsulfonyl)-N-piperidin-4-ylbenzenesulfonamide]
[1]
  EC50: 1870 nM
  fold induction at 10 µM: 2.4
[2]
  IC50: 10000 nM

## CN(CCNS(=O)(=O)c1cc(S(=O)(=O)c2ccccc2)ccc1C(F)(F)F)C(=O)c1ccc(C(F)(F)F)c(F)c1 [Example 847, 3-Fluoro-N-methyl-N-[2-({[5-(phenylsulfonyl)-2-(trifluoromethyl)phenyl]sulfonyl}amino)ethyl]-4-(trifluoromethyl)benzamide]
[1]
  fold induction at 10 µM: 2.4
[2]
  IC50: 2200 nM

## CC[C@H](CO)NS(=O)(=O)c1cc(S(=O)(=O)c2ccccc2)ccc1C(F)(F)F [Example 784, N-[(1R)-1-(hydroxymethyl)propyl]-5-(phenylsulfonyl)-2-(trifluoromethyl)benzenesulfonamide]
[1]
  fold induction at 10 µM: 3
[2]
  IC50: 3000 nM

## CN(CCNS(=O)(=O)c1cc(S(=O)(=O)c2ccccc2)ccc1C(F)(F)F)C(=O)N[C@@H]1CCCN(C(=O)OC(C)(C)C)C1 [Example 1009, tert-butyl (3R)-3-[({methyl[2-({[5-(phenylsulfonyl)-2-(trifluoromethyl)phenyl]sulfonyl}amino)ethyl]amino}carbonyl)amino]piperidine-1-carboxylate]
[1]
  EC50: 945 nM
[2]
  IC50: 210 nM

## CCCc1ccc(S(=O)(=O)c2ccccc2)cc1S(=O)(=O)NCC1CCOCC1 [Example 552, 5-(Phenylsulfonyl)-2-propyl-N-(tetrahydro-2H-pyran-4-ylmethyl)benzenesulfonamide]
[1]; [3]
  fold induction at 15 µM: 2.4
[1]; [4]
  fold induction at 15 µM: 1.2
[2]
  IC50: 1200 nM

## CC(C)(C)C(=O)N1CCC(NS(=O)(=O)c2cc(S(=O)(=O)c3ccccc3)ccc2Cl)CC1 [Example 648, 2-chloro-N-[1-(2,2-dimethylpropanoyl)piperidin-4-yl]-5-(phenylsulfonyl)benzenesulfonamide]
[1]; [3]
  fold induction at 15 µM: 2.9
[1]; [4]
  fold induction at 15 µM: 1.1
[2]
  IC50: 5000 nM

## O=S(=O)(NC1CCOCC1)c1cc(S(=O)(=O)c2cccc(Cl)c2)ccc1C(F)(F)F [Example 754, 5-[(3-chlorophenyl)sulfonyl]-N-(tetrahydro-2H-pyran-4-yl)-2-(trifluoromethyl)benzenesulfonamide]
[1]
  EC50: 1980 nM
  fold induction at 10 µM: 2.5
[2]
  IC50: 400 nM

## Cc1ccc(S(=O)(=O)c2ccc(NCc3ccccc3)cc2)cc1S(=O)(=O)NCCCn1ccnc1 [Example 370, 5-{[4-(benzylamino)phenyl]sulfonyl}-N-[3-(1H-imidazol-1-yl)propyl]-2-methylbenzenesulfonamide]
[1]; [5]
  fold induction at 15 µM: 1.8
[1]; [6]
  fold induction at 15 µM: 0.8
[2]
  IC50: 500 nM

## CCc1ccc(S(=O)(=O)c2ccccc2)cc1S(=O)(=O)NCCc1ccccn1 [Example 223, 2-ethyl-5-(phenylsulfonyl)-N-(2-pyridin-2-ylethyl)benzenesulfonamide]
[1]; [5]
  fold induction at 15 µM: 2.6
[1]; [6]
  fold induction at 15 µM: 0.8
[2]
  IC50: 900 nM

## COc1ccc(C(=O)N2CCC(NS(=O)(=O)c3cc(S(=O)(=O)c4ccccc4)ccc3C(F)(F)F)CC2)c(OC)c1 [Example 708, N-[1-(2,4-dimethoxybenzoyl)piperidin-4-yl]-5-(phenylsulfonyl)-2-(trifluoromethyl)benzenesulfonamide]
[1]
  EC50: 1170 nM
  fold induction at 10 µM: 3.7
[2]
  IC50: 300 nM

## CC(C)(C)OC(=O)NCCNS(=O)(=O)c1cc(S(=O)(=O)c2ccccc2)ccc1C(F)(F)F [Example 742, tert-Butyl[2-({[5-(phenylsulfonyl)-2-(trifluoromethyl)phenyl]sulfonyl}amino)ethyl]carbamate]
[1]
  fold induction at 10 µM: 2.4
[2]
  IC50: 280 nM

## Cc1ccccc1NC(=S)N1CCC(NS(=O)(=O)c2cc(S(=O)(=O)c3ccc(F)cc3)ccc2C(C)C)CC1 [Example 692, 4-[({5-[(4-fluorophenyl)sulfonyl]-2-isopropylphenyl}sulfonyl)amino]-N-(2-methylphenyl)piperidine-1-carbothioamide]
[1]
  EC50: 8500 nM
  fold induction at 10 µM: 3
[2]
  IC50: 1700 nM

## CC(C)c1ccc(S(=O)(=O)c2ccc(F)cc2)cc1S(=O)(=O)NC1CCN(C(=S)Nc2cccc(C(=O)O)c2)CC1 [Example 700, 3-[({4-[({5-[(4-fluorophenyl)sulfonyl]-2-isopropylphenyl}sulfonyl)amino]piperidin-1-yl}carbonothioyl)amino]benzoic acid]
[1]
  EC50: 397 nM
  fold induction at 10 µM: 1.7
[2]
  IC50: 500 nM

## COC(=O)c1ccc(NC(=S)N2CCC(NS(=O)(=O)c3cc(S(=O)(=O)c4ccc(F)cc4)ccc3C(C)C)CC2)cc1 [Example 696, methyl 4-[({4-[({5-[(4-fluorophenyl)sulfonyl]-2-isopropylphenyl}sulfonyl)amino]piperidin-1-yl}carbonothioyl)amino]benzoate]
[1]
  EC50: 14700 nM
  fold induction at 10 µM: 2.2
[2]
  IC50: 1100 nM
